System: 521955-158-R2-J5-PDC complex spheroid viability
Experiment: Anticancer human tumor 521955-158-R2-J5-PDC patient-derived pancreatic carcinoma cell line growth inhibition [GQUAD]
Conditions: for IC50: curve of first compound; for viability, T/C: stronger effect = lower value; active means viability on the fitted dose curve at most 10% of control; inactive means the rest
Method in brief: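 Viability of tumor cells grown as complex spheroids with endothelial and stromal cells, exposed to drug combinations. Top concentration at or near clinical Cmax (else 10 microM), diluted in half-log increments.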

[1] = second compound 0.0316 µM, first compound 0.0316 µM
[2] = second compound 0.0316 µM, first compound 0.1 µM
[3] = second compound 0.0316 µM, first compound 0.316 µM
[4] = second compound 0.0316 µM, first compound 1 µM
[5] = second compound 0.0316 µM, first compound 3.16 µM
[6] = second compound 0.0316 µM, first compound 10 µM
[7] = second compound 0.1 µM, first compound 0.0316 µM
[8] = second compound 0.1 µM, first compound 0.1 µM
[9] = second compound 0.1 µM, first compound 0.316 µM
[10] = second compound 0.1 µM, first compound 1 µM
[11] = second compound 0.1 µM, first compound 3.16 µM
[12] = second compound 0.1 µM, first compound 10 µM
[13] = second compound 0.316 µM, first compound 0.0316 µM
[14] = second compound 0.316 µM, first compound 0.1 µM
[15] = second compound 0.316 µM, first compound 0.316 µM
[16] = second compound 0.316 µM, first compound 1 µM
[17] = second compound 0.316 µM, first compound 3.16 µM
[18] = second compound 0.316 µM, first compound 10 µM
[19] = second compound 1 µM, first compound 0.0316 µM
[20] = second compound 1 µM, first compound 0.1 µM
[21] = second compound 1 µM, first compound 0.316 µM
[22] = second compound 1 µM, first compound 1 µM
[23] = second compound 1 µM, first compound 3.16 µM
[24] = second compound 1 µM, first compound 10 µM
[25] = second compound 3.16 µM, first compound 0.0316 µM
[26] = second compound 3.16 µM, first compound 0.1 µM
[27] = second compound 3.16 µM, first compound 0.316 µM
[28] = second compound 3.16 µM, first compound 1 µM
[29] = second compound 3.16 µM, first compound 3.16 µM
[30] = second compound 3.16 µM, first compound 10 µM
[31] = second compound 10 µM, first compound 0.0316 µM
[32] = second compound 10 µM, first compound 0.1 µM
[33] = second compound 10 µM, first compound 0.316 µM
[34] = second compound 10 µM, first compound 1 µM
[35] = second compound 10 µM, first compound 3.16 µM
[36] = second compound 10 µM, first compound 10 µM
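Further: spheroids exposed to agents for one week before reading.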
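Wherever viability, T/C is given: 100% = DMSO vehicle control viability.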

CC1COCCN1c1cc(-c2ccnn2C)c2ccnc(-c3ccn[nH]3)c2n1 (centres undefined) + Cc1[nH]c2ccc(F)cc2c1-c1nc2c3cccnc3c3ncccc3c2[nH]1
53.5 nM: IC50 (second compound 10 µM)
52.6 nM: IC50 (second compound 0.1 µM)
59 nM: IC50 (second compound 1 µM)
58.4 nM: IC50 (second compound 3.16 µM)
55.1 nM: IC50 (second compound 0.0316 µM)
inactive: viability, T/C [1] 81% | viability, T/C [2] 16.8% | viability, T/C [3] 10.3% | viability, T/C [4] 13.1% | viability, T/C [5] 18.4% | viability, T/C [6] 18.2% | viability, T/C [7] 73.7% | viability, T/C [8] 20.6% | viability, T/C [9] 8.98% | viability, T/C [10] 12.4% | viability, T/C [11] 18.1% | viability, T/C [12] 18.8% | viability, T/C [13] 84.4% | viability, T/C [14] 16.7% | viability, T/C [15] 13.3% | viability, T/C [16] 12.7% | viability, T/C [17] 18.5% | viability, T/C [18] 19.8% | viability, T/C [19] 90.1% | viability, T/C [20] 16.1% | viability, T/C [21] 9.88% | viability, T/C [22] 11.1% | viability, T/C [23] 19.8% | viability, T/C [24] 21.6% | viability, T/C [25] 88.1% | viability, T/C [26] 15.8% | viability, T/C [27] 9.58% | viability, T/C [28] 11.2% | viability, T/C [29] 21.6% | viability, T/C [30] 25% | viability, T/C [31] 77.7% | viability, T/C [32] 16% | viability, T/C [33] 10.9% | viability, T/C [34] 15.9% | viability, T/C [35] 19.3% | viability, T/C [36] 24%
56.8 nM: IC50 (second compound 0.316 µM)

COc1ccc([C@@H](O)c2cc(-c3ncnc4cc(N5CCOCC5)ccc34)c(F)cc2Cl)nn1 + Cc1cnc(CNC(=O)c2c(=O)c3ccc(N4CCCN(C)CC4)nc3n3c2sc2ccccc23)cn1
< 31.6 nM: IC50 (second compound 0.316 µM) | IC50 (second compound 1 µM) | IC50 (second compound 3.16 µM) | IC50 (second compound 10 µM)
292 nM: IC50 (second compound 0.0316 µM)
225 nM: IC50 (second compound 0.1 µM)
inactive: viability, T/C [1] 79.2% | viability, T/C [2] 62.5% | viability, T/C [3] 53.6% | viability, T/C [4] 30.4% | viability, T/C [5] 24.8% | viability, T/C [6] 25.6% | viability, T/C [7] 65.2% | viability, T/C [8] 56.8% | viability, T/C [9] 49.1% | viability, T/C [10] 31.7% | viability, T/C [11] 30.7% | viability, T/C [12] 20.9% | viability, T/C [13] 37.4% | viability, T/C [14] 35.3% | viability, T/C [15] 37% | viability, T/C [16] 24.5% | viability, T/C [17] 24.9% | viability, T/C [18] 18.3% | viability, T/C [19] 21.7% | viability, T/C [20] 20.7% | viability, T/C [21] 18.4% | viability, T/C [22] 18.2% | viability, T/C [23] 18.8% | viability, T/C [24] 18.1% | viability, T/C [25] 19.5% | viability, T/C [26] 20.4% | viability, T/C [27] 18.3% | viability, T/C [28] 16.9% | viability, T/C [29] 15.2% | viability, T/C [30] 12% | viability, T/C [31] 18.8% | viability, T/C [32] 18.6% | viability, T/C [33] 18.3% | viability, T/C [34] 16.8% | viability, T/C [35] 14.5% | viability, T/C [36] 11.6%
